Test results as given in patent US9962367B2, “Oral formulations of pyrrolidine derivatives” (ObsEva S.A., priority 2013, dated 2018).

Assay: Qualitative solubility/crystallisation tests on 15 mg scale
Assay type: physicochemical

Dissolves in (solvent DIPE, hot): 40 vol hot
Dissolves in (solvent IPA, hot): 4 vol hot
Dissolves in (solvent MIBK, hot): 4 vol hot
Dissolves in (solvent THF, cold): 4 vol cold
Dissolves in (solvent tBuOH, hot): 6 vol hot
Dissolves in (solvent toluene, cold): 2 vol cold
Compound: CO/N=C1/C[C@@H](CO)N(C(=O)c2ccc(-c3ccccc3C)cc2)C1 [(3Z,5S), (3Z,5S)-5-(hydroxymethyl)-1-[(2′-methyl-1,1′-biphenyl-4-yl)carbonyl]pyrrolidin-3-one-O-methyloxime]
